Results published in ChEMBL document CHEMBL1145140, “Inhibitors of inosine monophosphate dehydrogenase: SARs about the N-[3-Methoxy-4-(5-oxazolyl)phenyl moiety” (Bioorg Med Chem Lett, 2003).

Legend:
[1] = test system: CCRF-CEM; assay: Inhibition of CEM cell proliferation.; format: functional, cell-based; conditions: Homo sapiens
[2] = target: Inosine-5'-monophosphate dehydrogenase 2 (Homo sapiens, UniProt P12268); assay: Inhibition of inosine-5'-monophosphate dehydrogenase 2.; format: single protein

SMILES | IC50 [1] [µM] | IC50 [2] [µM]
CC(C)(C)NC(=O)C(=O)Nc1ccc(-c2cnco2)c(Cl)c1 | > 10 | 
CC(C)(C)NC(=O)C(=O)Nc1ccc(-c2cnco2)c(Br)c1 | 5.5 | 
COc1cc(NC(=O)C(=O)NC(C)(C)C)ccc1-c1cnco1 | 2.3 | 
CC(C)(C)NC(=O)C(=O)Nc1ccc(-c2cnco2)cc1 |  | > 5
Cc1ncoc1-c1ccc(NC(=O)C(=O)NC(C)(C)C)cc1 |  | > 5
Cc1cccc(NC(=O)Nc2ccc(-c3cnco3)c(Cl)c2)c1 | > 10 | 0.043
CN(C(=O)CN1CCOCC1)c1ccccc1-c1cnc(Nc2ccc(-c3cnco3)c(Cl)c2)o1 | 4.3 | 0.047
c1ccc(-c2cnc(Nc3ccc(-c4cocn4)cc3)o2)cc1 |  | > 5
Cc1cc(Nc2ncc(-c3ccccc3N(C)C(=O)CO)o2)ccc1-c1cnco1 | 4.5 | 0.1
Cc1cccc(NC(=O)Nc2ccc(-c3ocnc3C)cc2)c1 |  | 0.5
COc1cc(Nc2ncc(-c3ccccc3N(C)C(=O)CN3CCOCC3)o2)ccc1-c1cocn1 | 9.9 | 0.091
CNc1nc(Nc2ccc(-c3cocn3)c(OC)c2)nc(-c2ccccc2)n1 |  | 1.6
COc1cc(Nc2ncc(-c3ccccc3N(C)C(=O)CO)o2)ccc1-c1cnco1 | 1.4 | 0.021
COc1c(-c2cnco2)ccc(Nc2ncc(-c3ccccc3)o2)c1Cl |  | > 5
CN(C(=O)CN1CCOCC1)c1ccccc1-c1cnc(Nc2ccc(-c3cnco3)c(Br)c2)o1 | 3.2 | 0.028
CNc1nc(Nc2ccc(-c3cnco3)c(OC)c2)nc(-c2ccccc2)n1 | 3.7 | 
COc1cc(NC(=NC#N)Nc2ccccc2)ccc1-c1cnco1 |  | 0.24
Cc1cccc(NC(=O)Nc2ccc(-c3cnco3)cc2)c1 | > 10 | 0.64
COc1cc(Nc2ncc(-c3ccccc3)o2)c(F)cc1-c1cnco1 |  | > 5
CNc1nc(Nc2ccc(-c3cnco3)cc2)nc(-c2ccccc2)n1 |  | > 5
COc1cc(Nc2ncc(-c3ccccc3)o2)ccc1-n1cncn1 | 8.3 | 0.41
Cc1cc(Nc2ncc(-c3ccccc3)o2)ccc1-c1cocn1 |  | > 5
CCc1cc(Nc2ncc(-c3ccccc3N(C)C(=O)CO)o2)ccc1-c1cnco1 | 4.5 | 0.1

SMILES | IC50 [1] [µM] | IC50 [2] [µM]
Cc1cc(Nc2ncc(-c3ccccc3N(C)C(=O)CN3CCOCC3)o2)ccc1-c1cnco1 | 3 | 0.045
Clc1cc(Nc2ncc(-c3ccccc3)o2)ccc1-c1cocn1 |  | > 5
CCOc1cc(Nc2ncc(-c3ccccc3)o2)ccc1-c1cnco1 |  | > 10
CNc1nc(Nc2ccc(-c3ocnc3C)cc2)nc(-c2ccccc2)n1 |  | > 5
CCc1cc(Nc2ncc(-c3ccccc3N(C)C(=O)CN3CCOCC3)o2)ccc1-c1cnco1 | > 10 | 0.31
CN(C(=O)CO)c1ccccc1-c1cnc(Nc2ccc(-c3cnco3)c(Br)c2)o1 | 2.4 | 0.021
Oc1cc(Nc2ncc(-c3ccccc3)o2)ccc1-c1cnco1 |  | > 1.6
COc1cc(Nc2ncc(-c3ccccc3N(C)C(=O)CO)o2)ccc1-c1cocn1 | 3.7 | 0.041
COc1cc(Nc2ncc(-c3ccccc3)o2)c(Cl)cc1-c1cnco1 |  | > 1.6
Clc1cc(Nc2ncc(-c3ccccc3)o2)ccc1-c1cnco1 | > 10 | 0.088
CN(C(=O)CO)c1ccccc1-c1cnc(Nc2ccc(-c3cnco3)c(Cl)c2)o1 | 3.6 | 0.041
COc1cc(Nc2ncc(-c3ccccc3)o2)ccc1-c1cnc(C)o1 |  | > 2
Cc1nc(C)c(-c2ccc(Nc3ncc(-c4ccccc4)o3)cc2)o1 |  | > 2
COc1cc(Nc2ncc(-c3ccccc3)o2)ccc1-c1cocn1 | > 10 | > 0.057
COc1cc(Nc2ncc(-c3ccccc3)o2)ccc1-c1ocnc1C |  | > 5
COc1cc(Nc2ncc(-c3ccccc3)o2)ccc1-c1cnco1 | > 10 | 
Cc1ncoc1-c1ccc(NC(=O)/C=C/c2ccco2)cc1 |  | > 2
Cc1ncoc1-c1ccc(Nc2ncc(-c3ccccc3)o2)cc1 |  | > 5
COc1cc(NC(=O)Nc2cccc(C)c2)ccc1-c1cnco1 | 2.3 | 
c1ccc(-c2cnc(Nc3ccc(-c4cnco4)cc3)o2)cc1 |  | > 5
COc1cc(Nc2ncc(-c3ccccc3)o2)ccc1-c1ncco1 |  | 0.19
COc1cc2nc(-c3ccccc3)cc(O)c2cc1-c1cocn1 | 3.5 | 0.21
CNc1nc(Nc2ccc(-c3cnco3)c(Cl)c2)nc(-c2ccccc2)n1 |  | > 0.34
